Measurements taken from ChEMBL document CHEMBL4507300 (2021).

Experiments:
[1] = molecular target: Tyrosine-protein kinase FRK (Homo sapiens) (UniProt P42685); details: Compound concentration 1000.0 nM
[2] = molecular target: Activated CDC42 kinase 1 (Homo sapiens) (UniProt Q07912); details: Compound concentration 1000.0 nM
[3] = molecular target: Cyclin-dependent kinase 19 (Homo sapiens) (UniProt Q9BWU1); details: Compound concentration 1000.0 nM
[4] = molecular target: Cyclin-dependent kinase-like 2 (Homo sapiens) (UniProt Q92772); details: Compound concentration 1000.0 nM
Sequence of Cyclin-dependent kinase-like 2 (Homo sapiens) (Q92772 whole entry): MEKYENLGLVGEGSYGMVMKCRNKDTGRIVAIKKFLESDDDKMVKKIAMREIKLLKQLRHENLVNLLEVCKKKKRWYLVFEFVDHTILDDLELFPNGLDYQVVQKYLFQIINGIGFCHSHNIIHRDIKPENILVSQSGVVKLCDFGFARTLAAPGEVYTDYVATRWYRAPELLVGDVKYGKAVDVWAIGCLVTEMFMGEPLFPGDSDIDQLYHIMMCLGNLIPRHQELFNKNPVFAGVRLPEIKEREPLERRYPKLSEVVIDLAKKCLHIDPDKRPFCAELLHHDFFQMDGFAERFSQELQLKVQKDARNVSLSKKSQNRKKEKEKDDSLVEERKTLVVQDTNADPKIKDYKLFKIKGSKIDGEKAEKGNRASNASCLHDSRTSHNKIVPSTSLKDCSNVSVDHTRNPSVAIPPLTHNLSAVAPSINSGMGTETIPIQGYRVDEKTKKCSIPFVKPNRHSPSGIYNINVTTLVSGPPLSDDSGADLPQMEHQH

[5] = molecular target: TGF-beta receptor type-2 (Homo sapiens) (UniProt P37173); details: Compound concentration 1000.0 nM
Sequence of TGF-beta receptor type-2 (Homo sapiens) (P37173 whole entry): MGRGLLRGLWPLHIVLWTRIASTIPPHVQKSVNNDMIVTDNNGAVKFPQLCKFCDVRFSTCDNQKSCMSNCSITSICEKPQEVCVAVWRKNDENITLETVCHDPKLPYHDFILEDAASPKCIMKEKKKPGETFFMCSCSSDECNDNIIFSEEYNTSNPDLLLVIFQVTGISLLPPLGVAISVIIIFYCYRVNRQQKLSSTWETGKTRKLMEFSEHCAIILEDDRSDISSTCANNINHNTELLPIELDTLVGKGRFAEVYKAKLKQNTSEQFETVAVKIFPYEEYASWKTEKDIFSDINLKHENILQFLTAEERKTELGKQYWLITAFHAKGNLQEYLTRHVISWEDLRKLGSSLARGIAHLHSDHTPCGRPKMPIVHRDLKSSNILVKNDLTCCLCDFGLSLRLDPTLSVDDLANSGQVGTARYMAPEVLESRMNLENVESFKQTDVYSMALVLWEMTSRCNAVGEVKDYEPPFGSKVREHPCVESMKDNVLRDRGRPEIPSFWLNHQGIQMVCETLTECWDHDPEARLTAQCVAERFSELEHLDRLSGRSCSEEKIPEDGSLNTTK

[6] = molecular target: 5-hydroxytryptamine receptor 1B (Homo sapiens) (UniProt P28222); details: Compound concentration 10.0 uM
Sequence of 5-hydroxytryptamine receptor 1B (Homo sapiens) (P28222 whole entry): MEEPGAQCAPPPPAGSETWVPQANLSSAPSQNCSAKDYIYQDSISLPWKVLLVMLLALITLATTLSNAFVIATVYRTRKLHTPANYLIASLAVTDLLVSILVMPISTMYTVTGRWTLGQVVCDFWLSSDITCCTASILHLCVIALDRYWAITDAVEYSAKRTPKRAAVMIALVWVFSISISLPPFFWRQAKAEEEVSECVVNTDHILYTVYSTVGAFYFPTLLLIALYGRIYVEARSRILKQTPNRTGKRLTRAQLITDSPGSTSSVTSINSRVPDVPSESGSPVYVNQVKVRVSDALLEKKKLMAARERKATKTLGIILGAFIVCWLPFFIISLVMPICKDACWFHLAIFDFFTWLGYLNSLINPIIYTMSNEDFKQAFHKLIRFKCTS

[7] = molecular target: Ephrin type-B receptor 3 (Homo sapiens) (UniProt P54753); details: Compound concentration 1000.0 nM
[8] = molecular target: Serine/threonine-protein kinase 3 (Homo sapiens) (UniProt Q13188); details: Compound concentration 1000.0 nM
Sequence of Serine/threonine-protein kinase 3 (Homo sapiens) (Q13188 whole entry): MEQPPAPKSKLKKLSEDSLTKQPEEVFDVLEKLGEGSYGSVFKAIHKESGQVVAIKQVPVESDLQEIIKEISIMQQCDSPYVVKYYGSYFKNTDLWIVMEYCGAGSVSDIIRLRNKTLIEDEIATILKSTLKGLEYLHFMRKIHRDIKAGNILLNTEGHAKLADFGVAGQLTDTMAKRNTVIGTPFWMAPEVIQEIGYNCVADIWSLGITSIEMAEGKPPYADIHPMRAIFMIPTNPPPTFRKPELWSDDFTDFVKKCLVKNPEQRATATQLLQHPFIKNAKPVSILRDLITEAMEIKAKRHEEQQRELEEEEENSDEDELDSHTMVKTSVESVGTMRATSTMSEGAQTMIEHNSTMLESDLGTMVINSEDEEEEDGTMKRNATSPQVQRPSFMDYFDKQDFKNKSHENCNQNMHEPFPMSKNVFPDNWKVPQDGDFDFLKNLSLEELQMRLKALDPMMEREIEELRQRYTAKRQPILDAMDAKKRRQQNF

[9] = molecular target: Serine/threonine-protein kinase SIK1 (Homo sapiens) (UniProt P57059); details: Compound concentration 1000.0 nM
Sequence of Serine/threonine-protein kinase SIK1 (Homo sapiens) (P57059 whole entry): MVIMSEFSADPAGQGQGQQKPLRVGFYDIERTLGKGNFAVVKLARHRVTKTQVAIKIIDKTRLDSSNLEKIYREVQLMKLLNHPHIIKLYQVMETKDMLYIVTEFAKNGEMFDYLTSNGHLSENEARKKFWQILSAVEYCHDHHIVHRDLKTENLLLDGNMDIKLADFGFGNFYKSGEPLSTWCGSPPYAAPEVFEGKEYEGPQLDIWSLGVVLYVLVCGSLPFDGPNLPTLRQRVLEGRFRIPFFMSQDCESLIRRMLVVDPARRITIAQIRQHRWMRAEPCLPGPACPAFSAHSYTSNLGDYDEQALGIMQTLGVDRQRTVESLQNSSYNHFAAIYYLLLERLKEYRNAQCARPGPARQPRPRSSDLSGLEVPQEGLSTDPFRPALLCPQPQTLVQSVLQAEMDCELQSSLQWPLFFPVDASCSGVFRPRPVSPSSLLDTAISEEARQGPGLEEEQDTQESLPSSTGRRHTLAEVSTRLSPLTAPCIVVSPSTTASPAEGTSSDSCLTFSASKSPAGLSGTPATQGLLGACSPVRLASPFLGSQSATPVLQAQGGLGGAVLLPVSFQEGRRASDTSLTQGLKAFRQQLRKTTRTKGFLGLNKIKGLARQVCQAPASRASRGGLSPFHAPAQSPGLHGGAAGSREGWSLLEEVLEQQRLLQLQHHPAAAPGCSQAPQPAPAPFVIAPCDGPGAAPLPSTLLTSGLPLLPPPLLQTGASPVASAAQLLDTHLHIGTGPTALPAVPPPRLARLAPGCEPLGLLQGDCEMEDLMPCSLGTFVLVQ

[10] = molecular target: Ephrin type-A receptor 1 (Homo sapiens) (UniProt P21709); details: Compound concentration 1000.0 nM

Sequence of Cyclin-dependent kinase 19 (Homo sapiens) (Q9BWU1 whole entry): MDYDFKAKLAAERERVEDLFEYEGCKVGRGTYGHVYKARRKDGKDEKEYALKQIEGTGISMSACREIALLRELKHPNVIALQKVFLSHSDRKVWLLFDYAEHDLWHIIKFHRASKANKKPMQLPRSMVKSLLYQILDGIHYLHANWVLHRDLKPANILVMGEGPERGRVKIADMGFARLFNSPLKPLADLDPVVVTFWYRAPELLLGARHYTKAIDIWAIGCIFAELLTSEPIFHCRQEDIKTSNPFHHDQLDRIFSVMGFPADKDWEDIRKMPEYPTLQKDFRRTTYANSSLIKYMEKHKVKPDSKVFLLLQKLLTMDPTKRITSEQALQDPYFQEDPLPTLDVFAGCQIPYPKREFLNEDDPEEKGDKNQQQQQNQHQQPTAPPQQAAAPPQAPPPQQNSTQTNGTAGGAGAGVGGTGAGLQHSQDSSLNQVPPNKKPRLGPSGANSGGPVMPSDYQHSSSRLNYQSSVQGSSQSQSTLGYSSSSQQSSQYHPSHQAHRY
Sequence of Tyrosine-protein kinase FRK (Homo sapiens) (P42685 whole entry): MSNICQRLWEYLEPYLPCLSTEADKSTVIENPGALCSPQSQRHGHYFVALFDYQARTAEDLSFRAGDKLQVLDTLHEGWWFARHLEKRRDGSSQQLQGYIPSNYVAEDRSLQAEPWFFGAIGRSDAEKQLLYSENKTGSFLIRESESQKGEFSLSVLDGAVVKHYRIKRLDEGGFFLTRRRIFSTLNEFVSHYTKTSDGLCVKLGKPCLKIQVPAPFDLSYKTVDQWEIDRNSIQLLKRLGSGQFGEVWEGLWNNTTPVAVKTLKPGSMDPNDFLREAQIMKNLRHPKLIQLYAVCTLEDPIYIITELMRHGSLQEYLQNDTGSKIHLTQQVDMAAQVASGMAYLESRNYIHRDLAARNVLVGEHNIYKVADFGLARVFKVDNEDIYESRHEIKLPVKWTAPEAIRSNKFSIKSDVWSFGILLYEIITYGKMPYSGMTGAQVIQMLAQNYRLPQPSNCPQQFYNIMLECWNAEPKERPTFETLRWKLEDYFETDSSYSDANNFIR
Sequence of Activated CDC42 kinase 1 (Homo sapiens) (Q07912 whole entry, looked up): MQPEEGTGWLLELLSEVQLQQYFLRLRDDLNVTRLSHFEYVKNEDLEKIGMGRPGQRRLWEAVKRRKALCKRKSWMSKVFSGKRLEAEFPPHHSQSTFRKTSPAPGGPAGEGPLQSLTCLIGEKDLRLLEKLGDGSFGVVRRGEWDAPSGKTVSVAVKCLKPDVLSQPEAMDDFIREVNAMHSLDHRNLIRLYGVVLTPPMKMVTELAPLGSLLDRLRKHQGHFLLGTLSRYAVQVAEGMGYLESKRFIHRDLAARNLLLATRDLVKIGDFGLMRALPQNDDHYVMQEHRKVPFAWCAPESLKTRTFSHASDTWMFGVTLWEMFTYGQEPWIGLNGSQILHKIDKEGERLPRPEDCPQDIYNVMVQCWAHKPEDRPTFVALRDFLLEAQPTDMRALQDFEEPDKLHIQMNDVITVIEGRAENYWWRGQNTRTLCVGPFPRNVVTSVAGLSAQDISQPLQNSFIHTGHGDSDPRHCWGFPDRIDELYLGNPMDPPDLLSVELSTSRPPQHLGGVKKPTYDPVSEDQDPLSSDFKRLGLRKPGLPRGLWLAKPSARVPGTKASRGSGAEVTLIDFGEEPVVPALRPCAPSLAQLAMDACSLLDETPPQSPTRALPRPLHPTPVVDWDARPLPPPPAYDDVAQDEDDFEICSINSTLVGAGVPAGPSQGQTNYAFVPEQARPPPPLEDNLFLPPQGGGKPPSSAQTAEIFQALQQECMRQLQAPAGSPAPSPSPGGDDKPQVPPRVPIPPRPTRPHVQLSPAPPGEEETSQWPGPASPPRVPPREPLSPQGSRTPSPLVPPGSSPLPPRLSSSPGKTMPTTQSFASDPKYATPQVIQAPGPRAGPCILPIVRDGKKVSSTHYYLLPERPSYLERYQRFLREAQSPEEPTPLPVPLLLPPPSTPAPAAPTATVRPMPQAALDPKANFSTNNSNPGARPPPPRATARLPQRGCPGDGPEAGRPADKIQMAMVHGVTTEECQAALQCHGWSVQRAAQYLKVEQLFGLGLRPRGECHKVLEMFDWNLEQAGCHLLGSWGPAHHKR

COc1cccc(CNC(=O)c2nc3scc(COCc4ccc(C(=O)O)cc4)c3c(=O)[nH]2)c1 [T-26c]
inactive: residual activity [1] 83.7% | residual activity [2] 89.6% | residual activity [3] 100% | residual activity [4] 66.8% | residual activity [5] 97% | inhibition [6] 15.9% | residual activity [7] 85.4% | residual activity [8] 100% | residual activity [9] 100% | residual activity [10] 79.9%
